Experimental data published in the supplement of paper PMC11061612.

Legend:
Test in all cases: Bliss excess, mean over the matrix (fraction); higher = more synergy
C32 (Melanoma) = system: C32 (Melanoma)
How it was run: (§1)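 Cell lines grown in DMEM/F12 or RPMI with 10% FBS were plated in 1536-well plates and held 24 hours at 37°C, 5% CO2 before 72 hours of exposure to two-drug dose matrices, with DMSO typically at 0.2%. CellTiter-Glo 2.0 luminescence gave viability, which was converted to inhibition. Vehicle wells were set to 0 and blank wells to 1. Combination Emax is the second-highest inhibition in the matrix, and Bliss excess is the observed combination effect minus the expected EA + EB − EA·EB, where EA and EB are the single-agent effects.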

[1] = system: L-363 (Plasma Cell Myeloma)
How it was run: as §1

[2] = system: SW1463 (Colorectal Carcinoma)
How it was run: as §1

[3] = system: NTERA-2-cl-D1 (Other Solid Carcinomas)
How it was run: as §1

[4] = system: NCI-H1648 (Lung Adenocarcinoma)
How it was run: as §1

[5] = system: NCI-H2009 (Lung Adenocarcinoma)
How it was run: as §1

[6] = system: OVKATE (Ovarian Carcinoma)
How it was run: as §1

[7] = system: BC-1 (B-Cell Non-Hodgkin's Lymphoma)
How it was run: as §1

[8] = system: JJN-3 (Plasma Cell Myeloma)
How it was run: as §1

| Compound | Bliss excess (C32 (Melanoma)) | Bliss excess [1] | Bliss excess [2] | Bliss excess [3] | Bliss excess [4] | Bliss excess [5] | Bliss excess [6] | Bliss excess [7] | Bliss excess [8] |
| --- | --- | --- | --- | --- | --- | --- | --- | --- | --- |
| CN(CCO)CC[C@H](CSc1ccccc1)Nc1ccc(S(=O)(=O)NC(=O)c2ccc(N3CCC([C@@H](O)c4ccccc4-c4ccc(Cl)cc4)CC3)cc2)cc1S(=O)(=O)C(F)(F)F [AZD4320] + CS(=O)(=O)CCNCc1ccc(-c2ccc3ncnc(Nc4ccc(OCc5cccc(F)c5)c(Cl)c4)c3c2)o1 [Lapatinib] (first compound max 1 µM, 7x7, partner max 10 µM) | -0.0269 | 0.0082 | 0.105 | -0.026 | -0.0316 | -0.0017 | -0.0082 | 0.0372 |  |
| CS(=O)(=O)CCNCc1ccc(-c2ccc3ncnc(Nc4ccc(OCc5cccc(F)c5)c(Cl)c4)c3c2)o1 [Lapatinib] + NC1(c2ccc(-c3nc4ccn5c(=O)[nH]nc5c4cc3-c3ccccc3)cc2)CCC1 [MK-2206] (first compound max 10 µM, 7x7, partner max 10 µM) | 0.0188 | 0.026 | 0.0833 | 0.0305 | 0.0349 | -0.0246 | -0.031 | 0.0584 | 0.0508 |
| C[C@@H](Oc1cc(-c2cnn(C3CCNCC3)c2)cnc1N)c1c(Cl)ccc(F)c1Cl [Crizotinib] + Cn1cnc2c(F)c(Nc3ccc(Br)cc3Cl)c(C(=O)NOCCO)cc21 [Selumetinib] (first compound max 10 µM, 7x7, partner max 10 µM) | 0.0411 | 0.0316 | -0.0443 | -0.027 | -0.108 | 0.0062 | -0.0392 | -0.045 |  |
| C[C@@H](Nc1cc(F)cc(F)c1)c1cc(C(=O)N(C)C)cc2c(=O)cc(N3CCOCC3)oc12 [AZD8186] + CC(=O)c1c(C)c2cnc(Nc3ccc(N4CCNCC4)cn3)nc2n(C2CCCC2)c1=O [Palbociclib] (first compound max 10 µM, 7x7, partner max 10 µM) | 0.04 | 0.0624 | 0.101 | 0.0104 | 0.0672 | -0.0184 | -0.0096 | 0.0867 |  |
| C=CCn1c(=O)c2cnc(Nc3ccc(N4CCN(C)CC4)cc3)nc2n1-c1cccc(C(C)(C)O)n1 [AZD1775] + Nc1ccn([C@@H]2O[C@H](CO)[C@@H](O)C2(F)F)c(=O)n1 [Gemcitabine] (first compound max 1 µM, partner max 0.3 µM) | -0.0569 | 0.125 | -0.0109 | -0.062 | -0.0038 | 0.0606 | -0.0681 | 0.0191 |  |
| CC1(C)CCC(CN2CCN(c3ccc(C(=O)NS(=O)(=O)c4ccc(NCC5CCOCC5)c([N+](=O)[O-])c4)c(Oc4cnc5[nH]ccc5c4)c3)CC2)=C(c2ccc(Cl)cc2)C1 [Venetoclax] + CS(=O)(=O)CCNCc1ccc(-c2ccc3ncnc(Nc4ccc(OCc5cccc(F)c5)c(Cl)c4)c3c2)o1 [Lapatinib] (first compound max 1 µM, 7x7, partner max 10 µM) | -0.0443 | -0.0033 | 0.0659 | -0.0618 | 0.04 | -0.0358 | -0.035 | 0.022 |  |
| CS(=O)(=O)CCNCc1ccc(-c2ccc3ncnc(Nc4ccc(OCc5cccc(F)c5)c(Cl)c4)c3c2)o1 [Lapatinib] + Cn1cnc2c(F)c(Nc3ccc(Br)cc3Cl)c(C(=O)NOCCO)cc21 [Selumetinib] (first compound max 10 µM, 7x7, partner max 10 µM) | -0.0418 | -0.0027 | 0.0681 | -0.0125 | 0.116 | -0.0531 | -0.0514 | 0.0547 |  |
| Cc1nc(-c2cn3c(n2)-c2ccc(-c4cnn(C(C)(C)C(N)=O)c4)cc2OCC3)n(C(C)C)n1 [Taselisib] + O=C(Nc1ccc2[nH]nc(-c3ccncc3)c2c1)[C@@H]1CCN(CC(=O)N2CCN(c3ccc(-c4ncccn4)cc3)CC2)C1 [SCH772984] (first compound max 10 µM, 7x7, partner max 5 µM) | 0.0706 | 0.176 | 0.0102 | -0.0322 | 0.115 | 0.0964 | 0.0487 | 0.139 |  |
| O=C(c1cc(Cc2n[nH]c(=O)c3ccccc23)ccc1F)N1CCN(C(=O)C2CC2)CC1 [Olaparib] + COc1nnc2ccc(N3CCC(c4ccc(OCCN5CCN(C)C(=O)[C@H]5C)cc4)CC3)nn12 [AZD5153] (first compound max 10 µM, 7x7, partner max 1 µM) | -0.0595 | 0.0357 | -0.0601 | -0.127 | -0.0388 | -0.044 | -0.0686 | -0.0048 |  |
| O=C(c1cc(Cc2n[nH]c(=O)c3ccccc23)ccc1F)N1CCN(C(=O)C2CC2)CC1 [Olaparib] + Cc1c2c(nn1C)CSCc1cc(n(C)n1)CSc1cc(c3ccccc3c1)OCCCc1c(C(=O)O)n(C)c3c-2c(Cl)ccc13 [AZD5991] (first compound max 10 µM, 7x7, partner max 1 µM) | -0.0585 | 0.0277 | -0.0325 | 0.0289 | -0.0083 | -0.0445 | -0.0525 | 0.0737 |  |
| Cc1c2c(nn1C)CSCc1cc(n(C)n1)CSc1cc(c3ccccc3c1)OCCCc1c(C(=O)O)n(C)c3c-2c(Cl)ccc13 [AZD5991] + Nc1ccn([C@@H]2O[C@H](CO)[C@@H](O)C2(F)F)c(=O)n1 [Gemcitabine] (first compound max 1 µM, 7x7, partner max 0.3 µM) | -0.0117 | 0.0938 | -0.0715 | -0.0695 | -0.0061 | -0.0361 | -0.0373 | 0.033 |  |
